Measurements as given in patent US20060263453A1, “Methods and compositions for modulating glutamate dehydrogenase” (priority 2004, published 2006).

Tested on: rat islets
Experiment: glucose stimulated insulin secretion (GSIS), short run-down (50 minutes), glucose ramp
Type: cell-based
Conditions: 20 μM, FIGS. 8A and 8B
Protocol: In this Example, the effect of EGCG on glucose stimulated insulin secretion (GSIS) was examined. Isolated rat islets were cultured with 20 mM glucose (FIG. 8A) and 10 mM glucose (FIG. 8B) for 3 days, then perifused in the absence of glucose for 50 minutes and in the presence of 0 μM EGCG; 20 μM EGCG; or 20 μM EGC. Next, the islets were stimulated by a glucose ramp (0 to 25 mM, 0.5 mM/minute). Finally, the islets were exposed to 30 mM KCl. Insulin levels were measured every minute by radioimmunoassay. The results shown in FIG. 8A are presented as means±S.E. for 100 islets from 3 separate experiments (and means±S.E. for 100 islets from 1 experiment for FIG. 8B).

Structure (SMILES): O=C(O[C@@H]1Cc2c(O)cc(O)cc2O[C@@H]1c1cc(O)c(O)c(O)c1)c1cc(O)c(O)c(O)c1 [EGCG, (2R,3R)-2-(3,4,5-Trihydroxyphenyl)-3,4-dihydro-1 (2H)-benzopyran-3,5,7-triol 3-(3,4,5-trihydroxybenzoate)]
- effect on GSIS: neither EGC nor EGCG affected
